pIC50: −log10 of the molar value.
These molecules were tested on Rattus norvegicus (assay: Anticonvulsant activity against kindled rats was determined after ip administration). Settings: not given.
Assay type: functional

Row | Structure (SMILES) | ED50
1 | Cl.O=C(O)C1=CCCN(CCOC(c2ccc(Cl)cc2)c2ccc(Cl)cc2)C1 | 14 mg/kg
2 | Cl.O=C(O)C1CCCN(CCOC(c2ccc(Cl)cc2)c2ccc(Cl)cc2)C1 (stereo not given) | 25 mg/kg

What follows are molecules tested against Sodium channel alpha subunits; brain (Types I, II, III) (Rattus norvegicus, UniProt P04775+P04774+P08104) (assay: Inhibition of veratridine-stimulated [14C]- guanidine influx into rat cortical slice). Settings: not given.
Assay type: functional

Row | Structure (SMILES) | IC50
3 | Cl.O=C(O)C1=CCCN(CCOC(c2ccc(C(F)(F)F)cc2)c2ccc(C(F)(F)F)cc2)C1 | 10 µM

These molecules were tested on Mus musculus (assay: Potency inhibiting tonic extensor seizures from low-intensity corneal electroshock in mice following peroral administration.). Settings: not given.
Assay type: functional

Row | Structure (SMILES) | ED50
4 | Cl.O=C(O)C1=CCCN(CCOC(c2ccc(C(F)(F)F)cc2)c2ccc(C(F)(F)F)cc2)C1 | 1 mg/kg

Organism: Rattus norvegicus
Experiment: In vitro Inhibitory activity against GABA uptake
Assay type: functional
Settings: not given

Row | pIC50 | Structure (SMILES)
5 | 5.28 | O=C(O)[C@@H]1CCCNC1 [(R)-NIPECOTIC ACID]

Organism: Rattus norvegicus
Experiment: In vitro inhibition of [3H]GABA uptake in rat Hippocampal slices.
Assay type: functional, organism-based
Settings: not given

Row | Structure (SMILES) | pIC50
6 | O=C(O)[C@H]1CCCN(CCOC(c2ccc(Cl)cc2)c2ccc(Cl)cc2)C1 (stereo in doubt; 36) | 4.85
7 | O=C(O)[C@H]1CCCN(CCOC(c2ccc(Cl)cc2)c2ccc(Cl)cc2)C1 (stereo in doubt; 37) | 6.74

Same assay, conditions: Rattus norvegicus, 3 h

Row | Structure (SMILES) | pIC50
8 | O=C(O)C1CCCN(CCOC(c2ccc(Cl)cc2)c2ccc(Cl)c(C(F)(F)F)c2)C1 (stereo not given) | 5.85
9 | CCOC(=O)C1CCCN(CCOC(c2ccc(Cl)cc2)c2ccc(Cl)cc2)C1 (stereo not given) | 4.96
10 | Cc1ccc(C(OCCN2CCCC(C(=O)O)C2)c2ccc(C)cc2)cc1 (stereo not given) | 5.24
11 | O=C(O)C1CCCN(CCC(Cc2ccccc2)c2ccccc2)C1 (stereo not given) | 4.30
12 | O=C(O)C1CCCN(CCOC(c2ccc(Cl)cc2)c2ccco2)C1 (stereo not given) | 5.06
13 | CC(=O)C1CCCN(CCOC(c2ccc(Cl)cc2)c2ccc(Cl)cc2)C1 (stereo not given) | 4.66
14 | O=C(O)C1CCCN(CCOC2c3ccc(Cl)cc3CCc3cc(Cl)ccc32)C1 (stereo not given) | 5.80
15 | O=C(O)C1CCCN(CCOC(c2ccc(Cl)c(Cl)c2)C2CCCCC2)C1 (stereo not given) | 5.96
16 | NC(=O)C1CCCN(CCOC(c2ccc(Cl)cc2)c2ccc(Cl)cc2)C1 (stereo not given) | 4.46
17 | O=C1NC(=O)C(c2ccccc2)(c2ccccc2)N1 [PHENYTOIN] | < 4.30
18 | CCCC(CCC)C(=O)O [VALPROIC ACID] | < 4.30
19 | O=C(O)C1CCCN(CCSC(c2ccccc2)c2ccccc2)C1 (stereo not given) | 4.22
20 | COC(=O)C1CCCN(CCOC(c2ccc(Cl)cc2)c2ccc(Cl)cc2)C1 (stereo not given) | 6.15
21 | CN(C)C(=O)C1CCCN(CCOC(c2ccc(Cl)cc2)c2ccc(Cl)cc2)C1 (stereo not given) | 4.60
22 | O=C(O)C1CCCN(CCOC(c2ccc(OC(F)(F)F)cc2)c2ccc(OC(F)(F)F)cc2)C1 (stereo not given) | 6.04
23 | O=C(O)[C@@H]1CCCNC1 [(R)-NIPECOTIC ACID] | 5.28
24 | O=C(O)C1CCCN(CC(=O)C(c2ccccc2)c2ccccc2)C1 (stereo not given) | < 4.30
25 | O=C(O)C1CCCN(CCOC(c2ccc(Cl)c(Cl)c2)c2ccc(Cl)c(Cl)c2)C1 (stereo not given) | 5.60
26 | O=C(O)C1CCCN(CCOC2c3ccccc3C=Cc3ccccc32)C1 (stereo not given) | 5.60
27 | O=C(O)C1CCCN(CCOC(c2ccc(F)cc2)c2ccc(F)cc2)C1 (stereo not given) | 5.11
28 | Cl.O=C(O)C1=CCCN(CCOC(c2ccc(Cl)cc2)c2ccc(Cl)cc2)C1 | 6.39
29 | NC(=O)N1c2ccccc2C=Cc2ccccc21 [CARBAMAZEPINE] | < 4.30
30 | OCC1CCCN(CCOC(c2ccc(Cl)cc2)c2ccc(Cl)cc2)C1 (stereo not given) | 4.33
31 | CNC(=O)C1CCCN(CCOC(c2ccc(Cl)cc2)c2ccc(Cl)cc2)C1 (stereo not given) | 4.40
32 | O=C(O)C1CCCN(CCCOC(c2ccccc2)c2ccccc2)C1 (stereo not given) | 4.92

Row | Structure (SMILES) | pIC50
33 | COC(=O)C1=CCCN(CCOC(c2ccc(C(F)(F)F)cc2)c2ccc(C(F)(F)F)cc2)C1 | 4.40
34 | O=C(O)C1CCCN(CCOC(c2ccccc2)c2ccc(Cl)cc2)C1 (stereo not given) | 4.70
35 | O=C(O)[C@H]1CN(CCOC(c2ccc(Cl)cc2)c2ccc(Cl)cc2)CC[C@H]1O | 5.82
36 | O=C(O)C1CCCN(CCOC(c2ccccc2)c2ccccc2)C1 (stereo not given) | 5.47
37 | Clc1ccc(C(OCCN2CCCCC2)c2ccc(Cl)cc2)cc1 | 4.68
38 | O=C(O)C1CCCN(CCOC(c2ccccc2)c2ccc(Cl)c(Cl)c2)C1 (stereo not given) | 5.92
39 | O=C(O)C1=CCCNC1 [GUVACINE] | 5.14
40 | O=C(O)[C@H]1CCCNC1 [(S)-NIPECOTIC ACID] | 4.26
41 | O=C(O)C1CCN(CCOC(c2ccc(Cl)cc2)c2ccc(Cl)cc2)C1 (stereo not given) | < 4.30
42 | O=C(O)C1CCN(CCOC(c2ccc(Cl)cc2)c2ccc(Cl)cc2)CC1 | < 4.30
43 | Cl.O=C(O)C1CCCN(CCOC(c2ccc(Cl)cc2)c2ccc(Cl)cc2)C1 (stereo not given) | 6.39
44 | O=C(O)C1CCCN(CCOC(c2ccc(Cl)cc2)c2cccs2)C1 (stereo not given) | 5.44
45 | O=C(O)[C@H]1CN(CCOC(c2ccc(Cl)cc2)c2ccc(Cl)cc2)CC[C@@H]1O | 5.92
46 | O=C(O)C1CCCN(CCC=C(c2ccccc2)c2ccccc2)C1 (stereo not given) | 5.00
47 | O=C(O)C1CCCN(CCCOC(c2ccccc2)(c2ccccc2)c2ccccc2)C1 (stereo not given) | 5.10
48 | O=C(CCCN1CCCC(C(=O)O)C1)c1ccc(F)cc1 (stereo not given) | < 4.30
49 | O=C1CCCN1CCOC(c1ccc(Cl)cc1)c1ccc(Cl)cc1 | 4.59
50 | O=C(O)C1CCCN(CCC2CC2(c2ccccc2)c2ccccc2)C1 (stereo not given) | < 4.30
51 | N#CC1CCCN(CCOC(c2ccc(Cl)cc2)c2ccc(Cl)cc2)C1 (stereo not given) | < 4.30
52 | Cl.O=C(O)C1=CCCN(CCOC(c2ccc(C(F)(F)F)cc2)c2ccc(C(F)(F)F)cc2)C1 | 6.47
53 | Cc1cc(Cl)ccc1C(OCCN1CCCC(C(=O)O)C1)c1ccc(Cl)cc1C (stereo not given) | 5.49
54 | O=C(O)CC1CCN(CCOC(c2ccc(Cl)cc2)c2ccc(Cl)cc2)C1 (stereo not given) | 5.57
55 | O=C(O)C1CCCN(CCc2oc3ccccc3c2-c2ccccc2)C1 (stereo not given) | 4.66
56 | O=C(O)C1CCCN(CCOC(c2ccc(C(F)(F)F)cc2)c2ccc(C(F)(F)F)cc2)C1 (stereo not given) | 6.15

Organism: Rattus norvegicus
Experiment: Potency inhibiting focal seizures in rat hippocampus preventing hippocampal after discharges
Assay type: functional
Settings: not given

Row | Structure (SMILES) | ED50
57 | Cl.O=C(O)C1=CCCN(CCOC(c2ccc(C(F)(F)F)cc2)c2ccc(C(F)(F)F)cc2)C1 | 2.6 mg/kg

What follows are molecules tested on Rodentia sp. (assay: Potency inhibiting clonic seizures induced by GABA antagonist pentylene tetrazole(PTZ) in rodents following oral administration.). Settings: not given.
Assay type: functional

Row | Structure (SMILES) | ED50
58 | Cl.O=C(O)C1=CCCN(CCOC(c2ccc(C(F)(F)F)cc2)c2ccc(C(F)(F)F)cc2)C1 | 0.4 mg/kg

What follows are molecules tested on Mus musculus (assay: Potency of the inhibiting ataxia in mice following peroral administration.). Settings: not given.
Assay type: functional

Row | Structure (SMILES) | ED50
59 | Cl.O=C(O)C1=CCCN(CCOC(c2ccc(C(F)(F)F)cc2)c2ccc(C(F)(F)F)cc2)C1 | 64 mg/kg

Each molecule was assayed on Rodentia sp. (assay: Inhibitory potency against threshold clonic seizures induced by ip picrotoxin in rodents). Settings: not given.
Assay type: functional

Row | Structure (SMILES) | Ataxia
60 | Cl.O=C(O)C1=CCCN(CCOC(c2ccc(C(F)(F)F)cc2)c2ccc(C(F)(F)F)cc2)C1 | 1.7%

— ChEMBL document CHEMBL1125353, “Structure-activity studies on benzhydrol-containing nipecotic acid and guvacine derivatives as potent, orally-active inhibitors of GABA uptake” (J Med Chem, 1992)
